Data from PMC9581132, “Cross clinical-experimental-computational qualification of in silico drug trials on human cardiac purkinje cells for proarrhythmia risk prediction” (Frontiers in Toxicology, 2022).
“Also recorded” adds a separate entry of the source. Where two headings read alike, the source gives them in different places.

What was measured:
hKv4.3 = target: T1, hKv4.3 (Homo sapiens, UniProt Q9UK17); assay: Automated patch clamp (QPatch), transient outward K+ current Ito; format: cell-based; conditions: room temperature; dash = no effect or IC50 much higher than tested concentrations
T1 construct: expressed in transfected cells; host or cells: HEK-293
T1 sequence (Q9UK17 1-655): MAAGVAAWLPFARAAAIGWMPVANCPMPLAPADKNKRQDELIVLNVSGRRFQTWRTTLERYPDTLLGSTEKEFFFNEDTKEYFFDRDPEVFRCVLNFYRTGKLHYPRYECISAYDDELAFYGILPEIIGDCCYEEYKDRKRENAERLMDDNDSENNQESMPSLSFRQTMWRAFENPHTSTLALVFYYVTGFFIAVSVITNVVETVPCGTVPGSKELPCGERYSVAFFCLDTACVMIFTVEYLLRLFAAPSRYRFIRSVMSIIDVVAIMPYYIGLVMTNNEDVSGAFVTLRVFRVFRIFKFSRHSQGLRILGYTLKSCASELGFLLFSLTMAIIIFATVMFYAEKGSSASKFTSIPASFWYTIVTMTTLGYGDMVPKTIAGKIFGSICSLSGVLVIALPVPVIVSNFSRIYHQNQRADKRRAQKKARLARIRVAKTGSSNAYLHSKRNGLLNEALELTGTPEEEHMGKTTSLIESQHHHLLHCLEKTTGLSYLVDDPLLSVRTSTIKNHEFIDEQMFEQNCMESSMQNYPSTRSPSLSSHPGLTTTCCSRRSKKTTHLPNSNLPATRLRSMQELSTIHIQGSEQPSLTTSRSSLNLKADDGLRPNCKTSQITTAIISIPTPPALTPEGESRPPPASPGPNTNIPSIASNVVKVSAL

rabbit Purkinje fibers = assay: In vitro drug assay on rabbit Purkinje fibers (microelectrode AP recordings); conditions: for EADs occurrence in rabbit experiments / Risk classification based on EADs occurrence, in vitro rabbit: slow pacing; for EADs occurrence in rabbit experiments: across tested concentrations; for Risk classification based on EADs occurrence, in vitro rabbit: compared with clinical risk; for ΔAPD90 Exp: Normal pacing (1 Hz)
[1] = design: method as in Woosley and Romer, 1999; key: 1: Known risk; 2: Conditional risk; NC: Not classified, i.e., evidence was not enough to add it to any risk category; conditions: CredibleMeds category; ref Woosley and Romer, 1999; cited from earlier work
hCav1.2 [2] = target: T2, hCav1.2 (Homo sapiens, UniProt Q13936); assay: Automated patch clamp (QPatch), L-type Ca2+ current ICaL; format: cell-based; conditions: room temperature; dash = no effect or IC50 much higher than tested concentrations
T2 construct: expressed in transfected cells; host or cells: CHO

hNav1.5 [3] = target: T3, hNav1.5 (Homo sapiens, UniProt Q14524); design: method as in Crumb et al., 2016; conditions: ref Crumb et al., 2016; cited from earlier work
T3 construct: expressed in transfected cells; host or cells: HEK-293

hCav1.2 [4] = target: T2, hCav1.2; conditions: ref Crumb et al., 2016; cited from earlier work
hERG = target: T4, hERG (Homo sapiens, UniProt Q12809); conditions: ref Crumb et al., 2016; cited from earlier work
T4 construct: host or cells: CHO (hERG-CHO) and HEK-293 stably transfected with hERG cDNA

[5] = design: method as in Démolis et al., 2003; conditions: therapeutic doses; ref Démolis et al., 2003; cited from earlier work
rabbit hearts = conditions: cited from earlier work
hNav1.5 [6] = target: T3, hNav1.5; assay: Automated patch clamp (QPatch), fast Na+ current INa; format: cell-based; conditions: room temperature; dash = no effect or IC50 much higher than tested concentrations
hiPSC-CMs = conditions: 100 µM; ref Blinova et al., 2018; Yu et al., 2019; cited from earlier work

T2 sequence (Q13936 whole entry): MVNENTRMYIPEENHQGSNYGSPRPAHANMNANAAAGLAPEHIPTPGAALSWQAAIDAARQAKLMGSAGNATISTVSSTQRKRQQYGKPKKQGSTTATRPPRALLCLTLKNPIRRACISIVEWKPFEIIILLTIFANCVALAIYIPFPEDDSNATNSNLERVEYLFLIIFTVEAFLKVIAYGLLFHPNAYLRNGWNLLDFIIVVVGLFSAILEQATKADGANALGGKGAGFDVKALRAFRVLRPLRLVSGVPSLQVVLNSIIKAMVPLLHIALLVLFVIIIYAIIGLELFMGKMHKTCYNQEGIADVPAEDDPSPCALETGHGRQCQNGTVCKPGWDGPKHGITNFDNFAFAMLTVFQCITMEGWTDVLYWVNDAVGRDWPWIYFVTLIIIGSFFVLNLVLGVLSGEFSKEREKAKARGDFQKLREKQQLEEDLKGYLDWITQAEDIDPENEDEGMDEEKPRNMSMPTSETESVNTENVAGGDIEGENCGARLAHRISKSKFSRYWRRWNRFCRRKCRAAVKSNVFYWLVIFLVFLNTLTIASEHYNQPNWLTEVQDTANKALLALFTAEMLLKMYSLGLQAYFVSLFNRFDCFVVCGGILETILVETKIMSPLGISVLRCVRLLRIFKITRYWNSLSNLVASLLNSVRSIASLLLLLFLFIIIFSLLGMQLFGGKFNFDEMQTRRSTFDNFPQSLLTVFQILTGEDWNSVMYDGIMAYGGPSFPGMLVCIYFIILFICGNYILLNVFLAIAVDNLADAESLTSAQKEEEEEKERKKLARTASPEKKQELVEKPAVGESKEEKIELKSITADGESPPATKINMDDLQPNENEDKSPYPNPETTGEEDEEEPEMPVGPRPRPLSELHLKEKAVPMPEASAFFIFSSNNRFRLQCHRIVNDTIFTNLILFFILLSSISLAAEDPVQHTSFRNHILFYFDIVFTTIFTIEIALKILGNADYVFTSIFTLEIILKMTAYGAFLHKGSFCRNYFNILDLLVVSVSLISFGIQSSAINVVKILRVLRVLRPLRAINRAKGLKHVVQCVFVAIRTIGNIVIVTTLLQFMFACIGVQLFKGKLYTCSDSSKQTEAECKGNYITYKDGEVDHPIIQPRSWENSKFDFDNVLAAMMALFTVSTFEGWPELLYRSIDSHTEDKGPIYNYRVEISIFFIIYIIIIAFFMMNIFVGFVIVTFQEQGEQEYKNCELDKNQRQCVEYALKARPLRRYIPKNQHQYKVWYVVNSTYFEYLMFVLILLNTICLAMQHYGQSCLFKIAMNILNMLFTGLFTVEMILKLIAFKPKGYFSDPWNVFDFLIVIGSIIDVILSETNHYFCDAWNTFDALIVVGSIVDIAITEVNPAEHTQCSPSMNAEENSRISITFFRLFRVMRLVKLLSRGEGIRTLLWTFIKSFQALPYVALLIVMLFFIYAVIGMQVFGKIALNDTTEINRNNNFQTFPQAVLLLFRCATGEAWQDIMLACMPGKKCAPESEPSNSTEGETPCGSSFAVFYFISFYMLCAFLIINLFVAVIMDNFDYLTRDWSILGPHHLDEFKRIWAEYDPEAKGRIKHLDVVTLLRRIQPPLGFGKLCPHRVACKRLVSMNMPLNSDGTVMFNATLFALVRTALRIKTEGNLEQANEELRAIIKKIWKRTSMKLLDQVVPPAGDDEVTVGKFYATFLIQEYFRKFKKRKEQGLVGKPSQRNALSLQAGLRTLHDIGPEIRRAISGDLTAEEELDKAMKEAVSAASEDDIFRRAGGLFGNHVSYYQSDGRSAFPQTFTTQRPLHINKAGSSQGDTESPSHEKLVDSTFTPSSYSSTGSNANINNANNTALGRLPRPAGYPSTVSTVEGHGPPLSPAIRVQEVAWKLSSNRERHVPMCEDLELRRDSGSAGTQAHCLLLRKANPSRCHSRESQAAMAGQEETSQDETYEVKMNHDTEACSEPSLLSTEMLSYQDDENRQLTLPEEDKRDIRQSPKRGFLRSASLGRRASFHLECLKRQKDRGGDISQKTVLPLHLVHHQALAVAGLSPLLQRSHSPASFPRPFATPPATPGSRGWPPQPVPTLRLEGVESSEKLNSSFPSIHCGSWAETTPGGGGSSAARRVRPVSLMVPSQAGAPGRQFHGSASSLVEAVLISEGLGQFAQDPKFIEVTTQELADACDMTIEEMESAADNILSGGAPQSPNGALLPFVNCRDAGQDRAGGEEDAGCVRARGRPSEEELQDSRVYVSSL
T3 sequence (Q14524 whole entry): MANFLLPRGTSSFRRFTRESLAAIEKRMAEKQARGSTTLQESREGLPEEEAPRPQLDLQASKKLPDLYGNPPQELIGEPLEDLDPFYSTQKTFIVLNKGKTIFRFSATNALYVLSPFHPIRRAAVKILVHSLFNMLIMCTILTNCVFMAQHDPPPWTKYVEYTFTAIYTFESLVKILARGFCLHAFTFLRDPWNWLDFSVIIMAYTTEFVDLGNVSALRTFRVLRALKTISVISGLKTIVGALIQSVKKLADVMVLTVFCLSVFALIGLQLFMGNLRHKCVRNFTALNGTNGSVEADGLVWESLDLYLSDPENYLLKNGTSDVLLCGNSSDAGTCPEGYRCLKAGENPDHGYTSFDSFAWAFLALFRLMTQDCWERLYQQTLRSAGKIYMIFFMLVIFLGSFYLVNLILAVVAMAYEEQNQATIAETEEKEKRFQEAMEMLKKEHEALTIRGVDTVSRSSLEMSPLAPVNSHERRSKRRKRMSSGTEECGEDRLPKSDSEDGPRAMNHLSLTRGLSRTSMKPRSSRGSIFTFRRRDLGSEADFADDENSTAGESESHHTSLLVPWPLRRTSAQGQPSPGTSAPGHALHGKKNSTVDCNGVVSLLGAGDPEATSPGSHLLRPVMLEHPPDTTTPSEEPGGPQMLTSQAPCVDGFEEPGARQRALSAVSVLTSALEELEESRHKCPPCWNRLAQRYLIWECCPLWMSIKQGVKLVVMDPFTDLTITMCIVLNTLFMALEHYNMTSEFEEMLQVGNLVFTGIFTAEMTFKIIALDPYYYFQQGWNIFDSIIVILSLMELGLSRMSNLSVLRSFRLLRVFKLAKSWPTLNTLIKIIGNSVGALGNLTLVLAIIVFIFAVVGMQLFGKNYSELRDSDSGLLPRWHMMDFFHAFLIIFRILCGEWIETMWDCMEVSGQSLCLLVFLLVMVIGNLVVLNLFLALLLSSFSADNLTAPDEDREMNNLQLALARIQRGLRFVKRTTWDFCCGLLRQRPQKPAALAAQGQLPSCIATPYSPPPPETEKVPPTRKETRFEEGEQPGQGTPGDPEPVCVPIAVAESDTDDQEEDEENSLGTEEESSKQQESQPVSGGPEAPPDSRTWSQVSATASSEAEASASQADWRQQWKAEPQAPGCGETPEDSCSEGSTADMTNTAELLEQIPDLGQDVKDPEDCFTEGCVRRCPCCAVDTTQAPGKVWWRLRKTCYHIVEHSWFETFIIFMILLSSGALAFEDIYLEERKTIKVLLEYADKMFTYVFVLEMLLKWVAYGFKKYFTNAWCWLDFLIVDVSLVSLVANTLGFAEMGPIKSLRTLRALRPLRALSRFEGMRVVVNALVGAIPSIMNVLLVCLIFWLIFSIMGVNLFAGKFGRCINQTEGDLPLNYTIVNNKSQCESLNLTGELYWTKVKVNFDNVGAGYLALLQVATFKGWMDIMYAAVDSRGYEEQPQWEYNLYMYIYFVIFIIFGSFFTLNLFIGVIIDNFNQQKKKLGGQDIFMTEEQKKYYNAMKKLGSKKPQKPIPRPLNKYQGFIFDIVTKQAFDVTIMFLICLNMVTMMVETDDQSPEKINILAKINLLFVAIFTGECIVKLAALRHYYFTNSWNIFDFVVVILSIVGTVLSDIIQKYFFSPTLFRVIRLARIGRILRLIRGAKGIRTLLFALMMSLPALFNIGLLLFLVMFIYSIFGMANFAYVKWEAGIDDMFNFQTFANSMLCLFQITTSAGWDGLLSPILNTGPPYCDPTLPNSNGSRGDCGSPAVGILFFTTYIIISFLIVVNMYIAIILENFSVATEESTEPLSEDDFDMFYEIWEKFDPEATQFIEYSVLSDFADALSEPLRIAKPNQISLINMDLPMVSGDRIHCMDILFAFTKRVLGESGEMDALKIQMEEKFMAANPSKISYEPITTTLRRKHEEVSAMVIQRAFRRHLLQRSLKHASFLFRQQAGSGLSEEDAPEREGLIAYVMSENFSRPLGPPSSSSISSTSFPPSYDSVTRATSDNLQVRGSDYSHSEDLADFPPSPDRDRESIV

IC50 (hKv4.3) [µM] | EADs occurrence in rabbit experiments (rabbit Purkinje fibers) | Risk classification based on EADs occurrence, in vitro rabbit (rabbit Purkinje fibers) | SMILES | TdP risk [1] | further results
 |  |  | CC(C)N(CCC(C(N)=O)(c1ccccc1)c1ccccn1)C(C)C (stereo not drawn) [Disopyramide] | 1 | IC50 (hCav1.2 [2]): 114 µM
 |  |  | CN(CCOc1ccc(NS(C)(=O)=O)cc1)CCc1ccc(NS(C)(=O)=O)cc1 [Dofetilide] | 1 | ΔAPD90 Exp (rabbit Purkinje fibers; 0.01 μM): 113%
 |  |  | CC(C)NCC(O)c1ccc(NS(C)(=O)=O)cc1 (stereo not drawn) [Sotalol] |  | ΔAPD90 Exp (rabbit Purkinje fibers; 30 μM): 96%
68 | no EADs were observed | misclassified | CC(C)(C)c1ccc(C(O)CCCN2CCC(C(O)(c3ccccc3)c3ccccc3)CC2)cc1 (stereo not drawn) [Terfenadine] |  | Risk classification based on mean APD90 prolongation >10%, in vitro rabbit (rabbit Purkinje fibers; 1 Hz): false negative; AP prolongation in vitro rabbit experiments (rabbit Purkinje fibers; APD90 at 1 Hz, maximum over tested concentrations): up to 7%
 |  |  | CC[C@H]1OC(=O)[C@H](C)[C@@H](O[C@H]2C[C@@](C)(OC)[C@@H](O)[C@H](C)O2)[C@H](C)[C@@H](O[C@@H]2O[C@H](C)C[C@H](N(C)C)[C@H]2O)[C@](C)(OC)C[C@@H](C)C(=O)[C@H](C)[C@@H](O)[C@]1(C)O [Clarithromycin] | 1 | IC50 (hNav1.5 [3]): 163 µM; IC50 (hCav1.2 [4]): 103 µM; ΔAPD90 Exp (rabbit Purkinje fibers; 30 μM): 51%; IC50 (hERG): 62.5 µM; QT prolongation [5]: no QT prolongation at therapeutic doses
22 | induced EADs |  | COc1ccc(CCN2CCC(Nc3nc4ccccc4n3Cc3ccc(F)cc3)CC2)cc1 [Astemizole] | 1 | 
13 | no EADs were observed | misclassified | CC(C)COCC(CN(Cc1ccccc1)c1ccccc1)N1CCCC1 (stereo not drawn) [Bepridil] | 1 | EADs in rabbit hearts (rabbit hearts; up to 10 µM, ref Anno et al., 1984, Hondeghem et al., 2003): did not induce EADs; IC50 (hNav1.5 [6]): 3.1 µM
 |  |  | Cc1nc2n(c(=O)c1CCN1CCC(c3noc4cc(F)ccc34)CC1)CCCC2 [Risperidone] | 2 | 
 | induced EADs |  | COc1cc(N)c(Cl)cc1C(=O)NC1CCN(CCCOc2ccc(F)cc2)CC1OC (stereo not drawn) [Cisapride] | 1 | IC50 (hCav1.2 [2]): 33 µM
 | no EADs were observed | misclassified | COc1ccccc1OCC(O)CN1CCN(CC(=O)Nc2c(C)cccc2C)CC1 (stereo not drawn) [Ranolazine] | 2 | Effect in rabbit hearts (rabbit hearts; 10 µM, ref Frommeyer et al., 2012, Sossalla et al., 2014): anti-torsadogenic effects; EADs in hiPSC-CMs (hiPSC-CMs): induced EADs; IC50 (hCav1.2 [2]): 156 µM
31 | did not induce any EADs | correctly classified as safe | COC(=O)C1=C(C)NC(C)=C(C(=O)OC)C1c1ccccc1[N+](=O)[O-] [Nifedipine] |  | 
 |  |  | C=C[C@H]1C[N@@]2CC[C@H]1C[C@@H]2[C@@H](O)c1ccnc2ccc(OC)cc12 [Quinidine] | 1 | 

SMILES | IC50 (hKv4.3) [µM] | EADs occurrence in rabbit experiments (rabbit Purkinje fibers) | Risk classification based on EADs occurrence, in vitro rabbit (rabbit Purkinje fibers) | TdP risk [1] | further results
COc1ccc([C@@H]2Sc3ccccc3N(CCN(C)C)C(=O)[C@@H]2OC(C)=O)cc1 [Diltiazem] | 84 | did not induce any EADs; also recorded: did not induce any repolarization abnormalities | correctly classified as safe |  | 
